The assay deals with soluble epoxide hydrolase (sEH). The assay can be described thus: Fluorescent assay for mouse and human soluble epoxide hydrolase (CMNPC substrate). Type of assay: biochemical, mouse or human, not specified. The text has this: Fluorescent Assay for Mouse and Human Soluble Epoxide Hydrolase Recombinant mouse sEH (MsEH) and human sEH (HsEH) were produced in a baculovirus expression system as previously reported. Grant et al., J. Biol. Chem., 268:17628-17633 (1993); Beetham et al., Arch. Biochem. Biophys., 305:197-201 (1993). The expressed proteins were purified from cell lysate by affinity chromatography. Wixtrom et al., Anal. Biochem., 169:71-80 (1988). Protein concentration was quantified using the Pierce BCA assay using bovine serum albumin as the calibrating standard. […] They contained no detectable esterase or glutathione transferase activity which can interfere with the assay. The assay was also evaluated with similar results in crude cell lysates or homogenate of tissues. The IC50s for each inhibitor were determined according to the following procedure: Substrate: [drawing 155] […] Jones P. D. et al.; Analytical Biochemistry 2005; 343: pp. 66-75) Solutions: Bis/Tris HCl 25 mM pH 7.0 containing 0.1 mg/mL of BSA (buffer […] at 0.25 mM in DMSO. Mother solution of enzyme in buffer A (Mouse sEH at 6 μg/mL and Human sEH at 5 μg/mL). Inhibitor dissolved in DMSO at the appropriate concentration. Protocol: In a black 96 well plate, fill all the wells with 150 μL of buffer A. Add 2 μL of DMSO in well A2 and A3, and then add 2 μL of inhibitor solution in A1 and A4 through A12. Add 150 μL of buffer A in row A, then mix several time and transfer 150 μL to row B. Repeat this operation up to row H. The 150 μL removed from row H is discarded. Add 20 μL of buffer A in column 1 and 2, then add 20 μL of enzyme solution to column 3 to 12. Incubate the plate for 5 minutes in the plate reader at 30° C. During incubation prepare the working solution of substrate by mixing 3.68 mL of buffer A (4×0.920 mL) with 266 μL (2×133 μL) of substrate solution). At t=0, add 30 μL of working substrate solution with multi-channel pipette labeled “Briggs 303” and start the reading ([S]final: 5 μM). Read with ex: 330 nm (20 nm) and em: 465 nm (20 nm) every 30 second for 10 minutes. The velocities are used to analyze and calculate the IC50s.

One may read the % Inhibition as the drop in the measured response relative to a control, in per cent.

Regarding `O=C(Nc1ccccc1)NC1CCN(C(=O)CCCN2CCOCC2)CC1` [ComparativeExample 1, 1-[1-(4-Morpholin-4-yl-butyryl)-piperidin-4-yl]-3-phenyl-urea, reference compound], the “% Inhibition” value (Conc 5000 nM) came out at 96%.

With `CC(=O)N1CCC(NC(=O)Nc2ccccc2)CC1` [ComparativeExample 5, 1-(1-Acetyl-piperidin-4-yl)-3-phenyl-urea, reference compound], the “% Inhibition” value (Conc 5000 nM) amounted to 80%.

Turning to `O=C(Nc1ccc(F)c(F)c1)NC1CCN(C(=O)CCCN2CCOCC2)CC1` [Compound 2, 1-(3,4-Difluoro-phenyl)-3-[1-(4-morpholin-4-yl-butyryl)-piperidin-4-yl]-urea], the “% Inhibition” value (Conc 500 nM) is on record as 70%.

As to `CC(C)CC(=O)N1CCC(NC(=O)Nc2ccc(C(F)(F)F)cc2)CC1` [Compound 6, 1-[1-(3-Methyl-butyryl)-piperidin-4-yl]-3-(4-trifluoromethyl-phenyl)-urea], the “% Inhibition” value (Conc 50 nM) worked out at 94%.

In the case of `O=C(Nc1ccc(F)cc1)NC1CCN(C(=O)c2cccnc2)CC1` [Compound 7, 1-(4-Fluoro-phenyl)-3-[1-(pyridine-3-carbonyl)-piperidin-4-yl]-urea], the “% Inhibition” value (Conc 500 nM) was 89%.

For the compound `O=C(Nc1ccc(C(F)(F)F)cc1)NC1CCN(C(=O)c2cccnc2)CC1` [Compound 8, 1-[1-(Pyridine-3-carbonyl)-piperidin-4-yl]-3-(4-trifluoromethyl-phenyl)-urea], the “% Inhibition” value (Conc 50 nM) amounted to 94%.

In the case of `O=C(Nc1ccc(C(F)(F)F)cc1)NC1CCN(C(=O)c2ccccn2)CC1` [Compound 9, 1-[1-(Pyridine-2-carbonyl)-piperidin-4-yl]-3-(4-trifluoromethyl-phenyl)-urea], the “% Inhibition” value (Conc 50 nM) was 94%.

Take `O=C(Nc1ccc(F)cc1)NC1CCN(C(=O)c2ccc(C(=O)O)cc2)CC1` [Compound 10, 4-{4-[3-(4-Fluoro-phenyl)-ureido]-piperidine-1-carbonyl}-benzoic acid]: the “% Inhibition” value (Conc 50 nM) was found to be 75%.

`O=C(Nc1ccc(C(F)(F)F)cc1)NC1CCN(C(=O)c2ccc(C(=O)O)cc2)CC1` [Compound 11, 4-{4-[3-(4-Trifluoromethyl-phenyl)-ureido]-piperidine-1-carbonyl}-benzoic acid]: the “% Inhibition” value (Conc 50 nM) was found to be 98%.

Turning to `O=C(Nc1ccc(F)cc1)NC1CCN(S(=O)(=O)c2cccc(C(F)(F)F)c2)CC1` [Compound 12, 1-(4-Fluoro-phenyl)-3-[1-(3-trifluoromethyl-benzenesulfonyl)-piperidin-4-yl]-urea], the “% Inhibition” value (Conc 50 nM) was 90%.

On to `O=C(Nc1ccc(F)cc1)NC1CCN(S(=O)(=O)c2ccccc2)CC1` [Compound 13, 1-(1-Benzenesulfonyl-piperidin-4-yl)-3-(4-fluoro-phenyl)-urea], for which, where the note is “Conc 50 nM”, the “% Inhibition” value is on record as 79%.

Take `O=C(Nc1ccc(F)cc1)NC1CCN(S(=O)(=O)c2ccc(C(F)(F)F)cc2)CC1` [Compound 14, 1-(4-Fluoro-phenyl)-3-[1-(4-trifluoromethyl-benzenesulfonyl)-piperidin-4-yl]-urea]: the “% Inhibition” value (Conc 50 nM) was 89%.

Turning to `O=C(Nc1ccc(Cl)cc1)NC1CCN(S(=O)(=O)c2ccc(C(=O)O)cc2)CC1` [Compound 15, 4-{4-[3-(4-Chloro-phenyl)-ureido]-piperidine-1-sulfonyl}-benzoic acid], the “% Inhibition” value (Conc 50 nM) was 75%.

In the case of `O=C(Nc1ccc(C(F)(F)F)cc1)NC1CCN(S(=O)(=O)c2ccc(C(=O)O)cc2)CC1` [Compound 16, 4-{4-[3-(4-Trifluoromethyl-phenyl)-ureido]-piperidine-1-sulfonyl}-benzoic acid], the “% Inhibition” value (Conc 50 nM) came out at 80%.

With `O=C(Nc1ccc(C(F)(F)F)cc1)NC1CCN(S(=O)(=O)c2ccccc2)CC1` [Compound 17, 1-(1-Benzenesulfonyl-piperidin-4-yl)-3-(4-trifluoromethyl-phenyl)-urea], where the note is “Conc 50 nM”, the “% Inhibition” value stood at 90%.

Regarding `O=C(Nc1ccc(C(F)(F)F)cc1)NC1CCN(S(=O)(=O)c2ccc(Cl)cc2)CC1` [Compound 18, 1-[1-(4-Chloro-benzenesulfonyl)-piperidin-4-yl]-3-(4-trifluoromethyl-phenyl)-urea], the “% Inhibition” value (Conc 50 nM) came to 90%.

The record behind these values is US20080221100A1, “SOLUBLE EPOXIDE HYDROLASE INHIBITORS” (Arete Therapeutics, Inc., priority 2006, published 2008).
